Data reported in patent publication US6242482A, “Prostaglandin compounds and derivatives thereof, compositions containing the same and method of using the same for the treatment of congestive heart failure” (priority 2000, dated 2001).
Several values for one entry are separate records, joined by “and”; a condition that tells them apart may be missing. Equal values may be shown once. Entries after “also recorded” stand apart in the source; their conditions may differ. Read-outs that look alike come from different tables or passages of the source.

Assays:
[1] = test system: mean arterial pressure and heart rate of anesthetized rats; details: for Time of Δmax (superscript) / t1/2 / Δmax (Mean Arterial Pressure): Table 4; for Mean Arterial Pressure: 0,1,5,10,15,30,60,120,180,240,360 min
Protocol: Male Wistar rats (250-330 g) were anesthetized with thiopentone sodium (INTRAVAL®, 120 mg/kg i.p.). The trachea was cannulated to facilitate respiration. The right carotid artery was cannulated and connected to a pressure transducer (Spectramed P23XL), for the measurement of mean arterial pressure (MAP) and heart rate (HR) which were continuously recorded on a 4-channel Grass 7D polygraph recorder (Grass, Mass., U.S.A.). Body temperature was maintained at 37±1°C. by means of a rectal probe thermometer attached to a homeothermic blanket control unit (Harvard Apparatus Ltd.).

[2] = test system: mean arterial pressure and heart rate of anesthetized rats; experiment: Systemic hemodynamic effects, intravenous, anesthetized rats (Example 5); format: in vivo, rat (male Wistar)
Protocol: The time for onset and maximal response were evaluated, as well as the time taken for the response to return to 50% of the baseline value for comparing effective lives. Among other effects, lowering of the blood pressure inside the blood vessels is beneficial for the treatment of congestive heart failure by reducing the vascular resistance blood flow, and thus the work load imposed on the heart.
Male Wistar rats were anesthetized with thiopentone sodium (INTRAVAL®, 120 mg kg^-1 i.p.). The trachea was cannulated to facilitate breathing. The right carotid artery was cannulated and connected to a pressure transducer (Spectramed P23XL), for the measurement of mean arterial pressure (MAP) and heart rate (HR) which were continuously recorded on a 4-channel Grass 7D polygraph recorder (Grass, Mass., USA). The left femoral vein or the right jugular vein was cannulated for the administration of drugs. The body temperature of the test animal was maintained at 37±1° C. by means of a rectal probe thermometer attached to a homeothermic blanket control unit (Harvard Apparatus Ltd).
After a 15 minute stabilization period, the animals were injected once intravenously with selected doses of each compound, and hemodynamic parameters were continuously monitored for three hours in order to ascertain the duration of action of the compounds under study.

[3] = test system: Human Platelet Aggregation (collagen-induced); experiment: Anti-aggregatory response after incubation with PPP (Example 8); format: cell-based; details: up to 4 hours at 37° C
Protocol: Blood from healthy human volunteers who had not taken any medicine for at least 14 days was collected by venopuncture into 3.15% (w/v) tri-sodium citrate (9:1 v/v). The blood was centrifuged at 800 g for 15 minutes to produce PRP. The PRP was further centrifuged at 12,000 g for 1 minute to produce PPP. A total of 12 volunteers donated blood for the study.
Platelet aggregation was studied using a dual channel Payton aggregometer calibrated with PRP (0%) and PPP (100%) with respect to the degree of light transmission. Aliquots of PRP (500 μl) were added to siliconized cuvettes, stirred (1000 revs/min) and warmed to 37° C. The platelets were incubated for 1 minute to establish a stable baseline prior to investigation. A submaximal concentration of the aggregating agent collagen (1 μg/ml) was added to the PRP and the platelet aggregation was monitored as the increase in light transmission observed over a 4 minute period.
After the incubation period, an aliquot of the PPP or aqueous vehicle (50 μl) was added to fresh PRP (450 μl) for determination of anti-platelet activity. This experiment was repeated using PPP from at least three human volunteers for each compound.

[4] = test system: Human Platelet Aggregation (collagen-induced); experiment: Anti-aggregatory response, 1 min incubation with PRP, collagen-induced (Example 4); format: cell-based; details: 1 min with PRP; for Platelet Aggregation (mean): collagen 1 μg/ml
Protocol: (§1) Blood from healthy human volunteers who had not taken any medicine for at least 14 days was collected by venopuncture into 3.15% (w/v) tri-sodium citrate (9:1 v/v). The blood was centrifuged at 800 g for 15 minutes to produce PRP. The PRP was further centrifuged at 12,000 g for 1 minute to produce PPP.
(§2) Platelet aggregation was measured using a dual channel Payton aggregometer calibrated with PRP (0%) and PPP (100%) with respect to the degree of light transmission. Aliquots of PRP (500 μl) were added to siliconized cuvettes, stirred (1000 revs/min) and warmed to 37° C. The platelets were incubated for 1 minute to establish a stable baseline prior to testing. A submaximal concentration of the aggregating agent collagen (1 μg/ml) was added to the PRP and the platelet aggregation was monitored as the increase in light transmission observed over a 4 minute period.
The percent inhibition of the platelet aggregation was calculated using the peak increase in light transmission observed over the 4 minute period following the addition of collagen, as compared to that of the control. This experiment was repeated using PRP from at least three human volunteers.

[5] = test system: Human Platelet Aggregation (collagen-induced); experiment: Anti-aggregatory response after incubation with human PPP (Example 4); format: cell-based
Protocol: as §1, §2
(§3) After the incubation period, a 50 μl aliquot of the aqueous vehicle with the corresponding sample compound was added to fresh PRP (450 μl) for determination of anti-aggregatory activity following challenge with collagen. This experiment was repeated using PPP from at least three human volunteers. […] The data in both Tables 2 and 3 are shown as the mean and the standard error of n number of donors.

[6] = test system: mean arterial pressure and heart rate of anesthetized rats; experiment: Systemic hemodynamic effects, intravenous, anesthetized rats (Example 9); format: in vivo, rat (male Wistar)
Protocol: Among other effects, lowering of the blood pressure inside the blood vessels is beneficial for the treatment of congestive heart failure by reducing the vascular resistance of the blood flow which substantially reduces the work load imposed on the heart. […] This study involved the use of male Wistar rats anaesthetized with thiopentone sodium ([…]®, 120 mg kg^-1 i.p.). The trachea was cannulated to facilitate breathing.

[7] = test system: Human Platelet Aggregation (collagen-induced); experiment: Anti-aggregatory response after incubation with aqueous vehicle (acetate buffer) (Example 4); format: cell-based
Protocol: as §1, §2, §3

[8] = i.v., Compound X 0.1 and 1 mg/kg, Compound 1 doses of b230

## CCCCC[C@H](O)CC[C@@H]1[C@H]2Cc3cccc(OCC(=O)O)c3C[C@H]2C[C@H]1O [Compound X]
[1]; 0.1 mg/kg s.c.
  Time of Δmax (superscript): 15 min
  t1/2: 2.75 h
  Δmax (Mean Arterial Pressure): 46 ± 5 mm Hg
[1]; 0.3 mg/kg s.c.
  Mean Arterial Pressure: 101 ± 12 mm Hg
  Time of Δmax (superscript): 10 min
  t1/2: 1.33 to 1.83 h
  Δmax (Mean Arterial Pressure): 52 mm Hg
[1]; 1 mg/kg s.c.
  maximum fall in MAP: about 70 mm Hg
  time of maximum fall in MAP: 15 min
  Mean Arterial Pressure: 88 ± 5 mm Hg and 98 ± 6 mm Hg
  Time of Δmax (superscript): 15 min
  t1/2: 2.25 to 4.83 h
  Δmax (Mean Arterial Pressure): 71 ± 8 mm Hg
[1]; rat, in vivo, sc
  heart rate / tachycardia: dose-dependent increase in heart rate
[1]; s.c., Compound 4 1-10 mg/kg, Compound X 0.1-1 mg/kg, Compounds 7 and 8 3-30 mg/kg
  fall in MAP: rapid dose-related fall in MAP
[2]; 0.1 mg/kg i.v.
  effective life (MAP returning to 50% of baseline value): about fifteen
[2]; 1.0 mg/kg i.v.
  effective life (MAP returning to 50% of baseline value): about thirty
[2]; i.v.
  decline in MAP: immediate, dose related decline in the MAP; also recorded: substantial dose-related fall in MAP
[2]; [8]
  maximum decline in MAP: about 70 mm Hg
  time of maximum decline in MAP: within the first minute
[3]
  effect of incubation with PPP on anti-platelet activity: not affected by incubation
[4]; 1 ng/ml final
  Platelet Aggregation (mean): 101 % of Control
[4]; 3 ng/ml final
  Platelet Aggregation (mean): 98 % of Control
[4]; 10 ng/ml final
  Platelet Aggregation (mean): 60 % of Control
[4]; 30 ng/ml final
  Platelet Aggregation (mean): 1 % of Control
[4]; 100 ng/ml final
  Platelet Aggregation (mean): 1 % of Control
[4]; Compound X 30 and 100 ng/ml, Compound 1 3 mg/ml, Compound 3 10 mg/ml
  inhibition of aggregation response at highest concentrations: completely inhibited the aggregation response
[4]; collagen
  concentration inhibiting aggregation by 50% (ID50): 0.02 µg/mL
  inhibition of platelet aggregation, concentration dependence: concentration-dependentinhibition of collagen-induced platelet aggregation
[5]; 3 ng/ml final, 1 Hour in human PPP
  Platelet Aggregation (mean): 100 % of Control
[5]; 3 ng/ml final, 4 Hours in human PPP
  Platelet Aggregation (mean): 91 % of Control
[5]; 3 ng/ml final, 15 Minutes in human PPP
  Platelet Aggregation (mean): 101 % of Control
[5]; 30 ng/ml final, 1 Hour in human PPP
  Platelet Aggregation (mean): 1 % of Control
[5]; 30 ng/ml final, 4 Hours in human PPP
  Platelet Aggregation (mean): 1 % of Control
[5]; 30 ng/ml final, 15 Minutes in human PPP
  Platelet Aggregation (mean): 1 % of Control
[5]; 15 minutes, 1 hour and 4 hours
  effect of incubation with PPP on anti-platelet activity: no significant effect on the anti-platelet activity
[6]; comparison of Compound 4 with Compound X (1 mg/kg i.v.)
  effective life of the fall in MAP: 30 min
[6]; i.v., Compound X 1 mg/kg, Compound 4 1-10 mg/kg, others 3-30 mg/kg
  fall in MAP: similar, maximal fall in MAP to the highest dose of Compound 4
[7]; 3 ng/ml final, 1 Hour in acetate buffer
  Platelet Aggregation (mean): 107 % of Control
[7]; 3 ng/ml final, 4 Hours in acetate buffer
  Platelet Aggregation (mean): 94 % of Control
[7]; 3 ng/ml final, 15 Minutes in acetate buffer
  Platelet Aggregation (mean): 98 % of Control
[7]; 30 ng/ml final, 1 Hour in acetate buffer
  Platelet Aggregation (mean): 8 % of Control
[7]; 30 ng/ml final, 4 Hours in acetate buffer
  Platelet Aggregation (mean): 8 % of Control
[7]; 30 ng/ml final, 15 Minutes in acetate buffer
  Platelet Aggregation (mean): 3 % of Control
[7]; 15 minutes, 1 hour and 4 hours
  effect of incubation with aqueous vehicle on anti-platelet activity: no significant effect on the degree of anti-platelet activity
